Biological target: T1, human GluR4B receptor (Homo sapiens, UniProt P48058)
T1 construct: expressed in transfected cells
Experiment: potentiation of agonist-induced excitability of human GluR4B receptor expressed in HEK 293 cells
Assay type: cell-based
Excerpt: The ability of compounds of formula I to potentiate glutamate receptor-mediated response may be determined using fluorescent calcium indicator dyes (Molecular Probes, Eugene, Oreg., Fluo-3) and by measuring glutamate-evoked efflux of calcium into GluR^4 transfected HEK293 cells, as described in more detail below.
In one test, 96 well plates containing confluent monolayers of HEK cells stably expressing human GluR4B (obtained as described in European Patent Application Publication Number EP-A1-583917) are prepared. The tissue culture medium in the wells is then discarded, and the wells are each washed once with 200 μl of buffer (glucose, 10 mM, sodium chloride, 138 mM, magnesium chloride, 1 mM, potassium chloride, 5 mM, calcium chloride, 5 mM, N-[2-hydroxyethyl]piperazine-N-[2-ethanesulfonic acid], 10 mM, to pH 7.1 to 7.3). […]
Each test is then performed as follows. […] A second fluorescent reading is taken after 5 minutes incubation. 15 μl of 400 μM glutamate solution is then added to each well (final glutamate concentration 100 μM), and a third reading is taken. The activities of test compounds and cyclothiazide solutions are determined by subtracting the second from the third reading (fluorescence due to addition of glutamate in the presence or absence of test compound or cyclothiazide) and are expressed relative to enhance fluorescence produced by 100 μM cyclothiazide.

T1 sequence (P48058 21-902): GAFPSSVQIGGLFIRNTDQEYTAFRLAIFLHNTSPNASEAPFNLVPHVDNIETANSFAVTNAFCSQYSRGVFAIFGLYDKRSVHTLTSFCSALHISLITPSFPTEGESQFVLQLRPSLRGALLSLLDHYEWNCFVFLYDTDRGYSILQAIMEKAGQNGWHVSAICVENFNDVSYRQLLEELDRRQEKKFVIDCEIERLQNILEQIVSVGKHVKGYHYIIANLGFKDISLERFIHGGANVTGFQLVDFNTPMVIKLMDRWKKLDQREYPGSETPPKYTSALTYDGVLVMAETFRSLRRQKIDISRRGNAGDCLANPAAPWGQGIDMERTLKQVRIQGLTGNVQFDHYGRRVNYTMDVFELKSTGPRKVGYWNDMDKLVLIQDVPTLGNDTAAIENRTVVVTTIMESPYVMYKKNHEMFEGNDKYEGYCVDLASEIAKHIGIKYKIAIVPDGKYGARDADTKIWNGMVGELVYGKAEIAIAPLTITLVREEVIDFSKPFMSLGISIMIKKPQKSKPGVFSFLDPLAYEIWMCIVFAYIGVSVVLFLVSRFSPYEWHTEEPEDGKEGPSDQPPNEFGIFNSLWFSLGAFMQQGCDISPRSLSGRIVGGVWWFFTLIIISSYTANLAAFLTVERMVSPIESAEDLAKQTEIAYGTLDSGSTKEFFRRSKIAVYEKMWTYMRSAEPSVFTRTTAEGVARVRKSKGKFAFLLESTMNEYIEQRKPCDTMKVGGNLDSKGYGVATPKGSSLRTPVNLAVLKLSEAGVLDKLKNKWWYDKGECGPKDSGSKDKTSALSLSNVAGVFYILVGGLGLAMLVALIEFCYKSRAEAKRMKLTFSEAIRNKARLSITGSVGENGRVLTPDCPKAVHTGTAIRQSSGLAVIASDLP

With `NS(=O)(=O)c1cc2c(cc1Cl)NC(C1CC3C=CC1C3)NS2(=O)=O` (stereo not drawn) [cyclothiazide] the “potentiation of agonist-induced excitability” value was “potentiate agonist-induced excitability”.

System: not given
Experiment: not given

Compared with `CCOCC(=O)Nc1ccc(C(C)CNS(=O)(=O)C(C)C)cc1` (stereo not drawn), `CC(CNS(=O)(=O)C(C)C)c1ccc(NC(=O)COc2ccccn2)cc1` (stereo not drawn) is higher in melting point: 113 to 116 °C for the first, 176 to 178 °C for the second.

First: CC(CNS(=O)(=O)C(C)C)c1ccc(NC(=O)CN2CCCCC2)cc1 (stereo not drawn)
Second: CC(CNS(=O)(=O)C(C)C)c1ccc(-c2ccc(OCCN3CCCC3)cc2)cc1.Cl (stereo not drawn)
The melting point of the first is lower: 139 to 141 °C for the first, 172 to 173 °C for the second.

For `CC(CNS(=O)(=O)C(C)C)c1ccc(NC(=O)CN(C)C)cc1.O=C(O)/C=C\C(=O)O` (stereo not drawn), the melting point was 120 to 122 °C.

Source: patent publication US6693137B1, “Sulphonamide derivatives” (Eli Lilly and Company, priority 1998, dated 2004)
